US7897568B2, “Compositions for treatment of cancer” (priority 2006, dated 2011)
Where a SMILES comes first, the peptide text is derived from it. Where no end group is shown, it is not given here.

Tests used:
GST-SNCG [1] = molecular target: T1, GST-SNCG (Homo sapiens, UniProt O76070); assay: Surface plasmon resonance, immobilized ANK peptide with GST-SNCG analyte; assay type: binding; settings: global fit, two-phase reaction (conformation change) model, 25° C.
T1 construct: The SNCG coding region was amplified from the human cDNA clone; made in house; host or cells: Escherichia coli BL21 (DE3)
T1 sequence (O76070 whole entry): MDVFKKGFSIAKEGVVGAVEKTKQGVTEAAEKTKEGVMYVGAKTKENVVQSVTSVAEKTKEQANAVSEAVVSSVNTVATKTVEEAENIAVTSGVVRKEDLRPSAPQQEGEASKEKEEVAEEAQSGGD
Procedure: Kinetics of the SNCG-ANK interaction were determined. […] Sensograms were deconvoluted globally, using a simultaneous fit for both association (ka, M^−1s^−1) and dissociation (kd, s^−1).
The binding interaction between the ANK peptide and GST-SNCG was examined in real time using a BIACORE 3000 biosensor system (Biacore Inc., NJ). Because of the relatively large amount required in this experiment, GST-SNCG, which expresses at least 2 times better than SNCG, was used. […] The changes in the refractive index at the sensor chip surface with respect to time are scaled in resonance units (RU). For proteins, every 1000 RU corresponds to a surface mass change of ˜1 ng/mm^2. All experiments were performed at 25° C. using research grade carboxymethylated dextran matrix (CM5) sensor chips (Biacore Inc.). […] Prior to all analyses the GST-SNCG and ANK peptide preparations were dialyzed against the running buffer to minimize bulk effects. […]
In all cases the analyte binding measurements were performed using running buffer 2 (running buffer 1 plus 0.1% P20 surfactant). […] Data was analyzed using BIAevaluation 3.1 software (Biacore Inc.). The data was analyzed globally, using a simultaneous fit for both association (ka, M^−1s^−1) and dissociation (kd, s^−1). The KD (M) value was calculated as kd/ka.

GST-SNCG [2] = molecular target: T1, GST-SNCG; assay: Isothermal titration calorimetry of ANK peptide into GST-SNCG; settings: ITC, first binding site
Procedure: The heat of dilution was measured by titrating ANK peptide in buffer alone. This was generally small and subtracted from each binding titration curve.
Titration calorimetry measurements were performed with a VP-ITC calorimeter (Microcal, Northampton, Mass.). The protein solution for ITC was dialyzed extensively overnight against 10 mM phosphate buffer, pH 7.0. The peptide solution was prepared by diluting with the buffer used for the protein dialysis. Injections (6 μl×50) of peptide (400 μM) were done by means of a rotating stirrer-syringe to the reaction cell, containing 1.43 ml of the 50 μM protein solution. The heat of dilution was determined to be negligible in separate titrations of the ligand into the buffer solution. Calorimetric data analysis was carried out with ORIGIN 5.0 software (MicroCal). Binding parameters such as the number of binding sites, the binding constant, and the binding enthalpy of bound ligand were determined by fitting the experimental binding isotherms.

MCF7-SNCG and T47D cells = assay: Mitotic index by anti-phospho-H3 immunostaining (microscopy) after paclitaxel; assay type: cell-based; settings: over-expressing EGFP-ANK in MCF7-SNCG and T47D cells
Procedure: (§1) FIG. 7A through D show expression of EGFP-ANK disrupting the SNCG-mediated inhibition of mitotic checkpoint function as measured by microscopy and flow cytometry. The bar graphs show the expression of EGFP-ANK disrupting the SNCG-mediated inhibition of mitotic checkpoint function, using (FIG. 7A) DAPI and (FIG. 7B) anti-phospho-H^3 staining. For graphs of FIGS. 7A and 7B, the cells treated with 0.5 μM paclitaxel for 18 hours or untreated control cells were fixed with 4% paraformaldehyde for 20 minutes at room temperature. In both cases, the cells were then stained with 1 μg/ml of DAPI or 2 μg/ml anti-phospho-H3 primary and Texas Red goat anti-rabbit secondary antibodies (Invitrogen). Green fluorescent cells were identified for positive transfected cells. For each sample, 200-300 cells randomly chosen from 5 different views under a Nikon fluorescent microscope were scored for interphase, mitotic, or apoptotic based upon nuclei morphology. The data shown were derived from three separate transfections (p<0.01). […]
(§2) Two days after transfection, cells were exposed to paclitaxel for 18 hours and numbers of mitotic arrested and apoptotic cells were counted after DAPI staining. […] These cells were also probed with rabbit polyclonal anti-phospho-H^3 and the mitotic index was calculated according to the proportion of the number of H^3 stained EGFP positive cells to total EGFP positive cells (FIG. 7B). […]

MCF7-SNCG cells = assay: Flow cytometry (PI cell cycle and anti-phospho-H3) after paclitaxel; assay type: cell-based; settings: 0.5 μM paclitaxel
Procedure: as §1, §2

Compound	kd1 (GST-SNCG [1])	kd2 (GST-SNCG [1])	ΔH (GST-SNCG [2])	sensitivity to paclitaxel by anti-phospho-H3 mitotic index (MCF7-SNCG and T47D cells)	increase in positive phosphorylated histones (anti-phospho-H3 staining) (MCF7-SNCG cells; versus MCF7-SNCG cells not containing EGFP-ANK)	increase in apoptotic/dead cell population (MCF7-SNCG cells; cell cycle analysis, versus control vector pEGFP)
CC[C@H](C)[C@H](NC(=O)[C@H](CS)NC(=O)CNC(=O)[C@H](CC(C)C)NC(=O)[C@H](Cc1c[nH]cn1)NC(=O)CNC(=O)[C@H](Cc1c[nH]cn1)NC(=O)[C@H](CCC(N)=O)NC(=O)[C@H](CO)NC(=O)[C@H](C)NC(=O)[C@@H](NC(=O)[C@H](Cc1c[nH]cn1)NC(=O)[C@H](CC(C)C)NC(=O)[C@H](C)NC(=O)[C@H](CO)NC(=O)[C@H](CC(N)=O)NC(=O)CNC(=O)[C@H](CCCCN)NC(C)=O)C(C)C)C(=O)N[C@@H](CCC(N)=O)C(=O)N[C@H](C(=O)N[C@@H](CC(C)C)C(=O)N[C@H](C(=O)N[C@@H](CCCNC(=N)N)C(=O)N[C@@H](Cc1ccc(O)cc1)C(=O)NCC(=O)N[C@@H](C)C(=O)N[C@@H](CC(N)=O)C(=O)N[C@H](C(=O)N[C@H](C(=O)N[C@@H](CCSC)C(=O)N[C@@H](CCC(N)=O)C(=O)N[C@@H](CC(N)=O)C(=O)N[C@@H](Cc1c[nH]cn1)C(=O)NCC(N)=O)[C@@H](C)O)C(C)C)C(C)C)[C@@H](C)O [ANK peptide] (Ac-KGNSALHVASQHGHLGCIQTLVRYGANVTMQNHG-NH2)	0.014 s⁻¹	0.000802 s⁻¹	2.174 ± 0.2 kcal/mol			
EGFP-ANK: ANK peptide expressed as a fusion protein with its amino-terminal linked to EGFP protein, approximately 37 kDa ({EGFP}-KGNSALHVASQHGHLGCIQTLVRYGANVTMQNHG)				increases in sensitivity to paclitaxel	3,5 fold	almost a four-fold increase
